Reference: US10532977B2, “Small molecule inhibitors of protein tyrosine phosphatases and uses thereof” (Indiana University Research and Technology Corporation, priority 2015, dated 2020)
Entries after “also recorded” stand apart in the source; their conditions may differ.

Tests used:
SHP2 [1] = target: SHP2 (Homo sapiens, UniProt Q06124); assay: Covalent adduct formation with SHP2, QTOF ESI-MS / LC-MS; settings: pH 7, cefsulodin 3 hours, PVS 10 minutes
Experimental: Characterization of cefsulodin-mediated SHP2 inhibition by Q-TOF ESI-MS, LC-MS, and HPLC. Agilent 6520 Accurate-Mass was used for the Q-TOF ESI-MS studies. Water and acetonitrile (both containing 0.1% formic acid) were used as eluent (80% water, flow 50 μL/min, run time 5 minutes). ESI positive mode was used with mass range from 300 to 1700, the gas temperature was 325° C., and vaporizer temperature was: […] The sample was adjusted to have a concentration at 0.1 mg/mL, the injection volume of each sample was 1 μL. Mass hunter software was used for protein deconvolution data analysis to calculate the molecular weight of the protein.
(§1) Agilent Technologies 6130 quadrupole LC-MS instrument was used for the LC-MS studies. A C18 reserved phase column (phenomenex, 50×4.6 mm) was used as stationary phase, water and methanol (both containing 0.1% formic acid) were used as mobile phase (gradient: 0-100% methanol, flow 0 8 ml/min, run time 15 minutes), and UV absorbance at the fixed wavelength of 254 nm and positive and negative ESI-MS data were recorded. The sample was adjusted to have a concentration at 0.1 mg/mL, and the injection volume of each sample was 0.2 μL. The retention time and corresponding ESI-MS data were used as identity of molecules.

SHP2/R362A = SHP2/R362A (Homo sapiens, UniProt Q06124, R362A); assay: SHP2/R362A mutant inhibition, pNPP substrate; type: biochemical; settings: vs wild-type SHP2
Experimental: Protein expression and purification. […] These proteins were expressed in E. coli BL21(DE3) and purified with Ni-NTA resin (Qiagen). The SHP2 catalytic domain (residues 262-528) used for crystallization was expressed in E. coli BL21(DE3) and purified by Ni-NTA agarose (Qiagen) followed by sequential chromatography of HiPrep 26 desalting column (GE Healthcare), and cation exchange column packed with SP sepharose (GE Healthcare). Protein purity was determined to be greater than 95% by SDS-PAGE and Coomassie blue staining.
Enzyme kinetics and inhibition studies. The SHP2 phosphatase activity was assayed in 96-well plates using pNPP as a substrate at 25° C. in 50 mM 3,3-dimethylglutarate (DMG) buffer (pH=7.0), containing 1 mM EDTA with an ionic strength of 0.15 M adjusted by NaCl. The FDA-approved drug collection or the SPAA based libraries were screened in a 96-well format at two different compound concentrations (10 and 20 μM for FDA drugs and 10 and 1 μM for the SPAA libraries). […] The amount of product, p-nitrophenol, was determined from the absorbance at 405 nm detected by a Spectra MAX340 microplate spectrophotometer (Molecular Devices) using a molar extinction coefficient of 18,000 M^−1 cm^−1. […] The Michaelis-Menten kinetic parameters kcat and Km were determined from a direct fit of the velocity versus substrate concentration data to Michaelis-Menten equation using SigmaPlot program.

SHP2 [2] = target: T1, SHP2 (Homo sapiens, UniProt Q06124); assay: SHP2 inhibition, pNPP substrate; type: biochemical; settings: for mode of SHP2 inhibition: pNPP as substrate
T1 sequence (Q06124 224-528): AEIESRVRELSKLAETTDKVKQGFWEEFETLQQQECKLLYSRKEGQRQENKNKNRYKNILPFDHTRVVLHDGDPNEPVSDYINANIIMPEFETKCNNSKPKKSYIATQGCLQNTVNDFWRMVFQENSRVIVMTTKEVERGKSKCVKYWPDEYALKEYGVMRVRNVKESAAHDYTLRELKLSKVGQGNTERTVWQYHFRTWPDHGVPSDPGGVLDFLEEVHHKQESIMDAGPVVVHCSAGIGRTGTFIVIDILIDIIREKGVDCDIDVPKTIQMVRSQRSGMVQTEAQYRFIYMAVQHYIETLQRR

[3] = Stability in buffer solutions by LC-MS; type: physicochemical
Experimental: as §1

LMWPTP = LMWPTP (Homo sapiens, UniProt P24666); assay: biochemical
PEST = PEST (Homo sapiens, UniProt Q05209); assay: PEST inhibition, pNPP substrate; type: biochemical
Laforin = target: T2, Laforin (Homo sapiens, UniProt O95278); assay: Laforin inhibition, pNPP substrate; type: biochemical
T2 sequence (O95278 1-331): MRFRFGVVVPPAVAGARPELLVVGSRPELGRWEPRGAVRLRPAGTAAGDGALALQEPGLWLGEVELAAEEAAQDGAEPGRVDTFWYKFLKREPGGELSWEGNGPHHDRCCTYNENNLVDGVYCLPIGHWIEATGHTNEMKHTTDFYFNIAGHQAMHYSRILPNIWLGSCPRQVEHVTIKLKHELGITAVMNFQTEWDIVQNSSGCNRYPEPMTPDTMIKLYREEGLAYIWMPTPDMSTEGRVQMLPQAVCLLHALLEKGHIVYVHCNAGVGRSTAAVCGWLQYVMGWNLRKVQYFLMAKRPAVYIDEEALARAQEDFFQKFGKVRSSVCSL

[4] = tested on: PMA-induced ERK1/2 phosphorylation; assay: PMA-induced ERK1/2 phosphorylation, immunoblot; type: cell-based, human
Experimental: (§2) Cell proliferation and immunoblot analysis. Human non-small cell lung carcinoma cell line H1975 was cultured at 37° C. and 5% CO2 in RPMI-1640 (Corning) supplemented with 10% fetal bovine serum (HyClone). Human breast cancer cell line MDA-MB-231 was cultured in DMEM supplemented with 10% fetal bovine serum. For cell proliferation assay, 2˜3×10^3 cells were seeded in each well of 96-well plates. After treating cells with compounds for 2 days, cells were incubated with 50 µg/ml MTT (3-(4,5-Dimethylthiazol-2-yl)-2,5-diphenyltetrazolium bromide) for ˜3-4 hours. Then, the culture medium was removed, DMSO was added to dissolve the formazan crystals. Wells containing only media were used for background correction. The optical density was measured spectrophotometrically at 540 nm. For signaling analysis, cells were serum-starved overnight followed by treatment with vehicle or compounds for 3 hours, and then either left un-stimulated or stimulated with 5 μg/ml EGF or 10 nM PMA (Sigma) for indicated time. Cells were lysed and the lysates were electrophoresed on a 10% polyacrylamide gel, and then transferred to a nitrocellulose membrane, and probed with anti-phospho-ERK1/2 and anti-ERK1/2 (Cell Signaling) antibodies followed by incubation with horseradish peroxidase-conjugated secondary antibodies. […]

SKBR3 cells = assay: SKBR3 cell growth and ERK1/2 in Matrigel; type: cell-based, human; settings: 5 days
Experimental: SHP2 inhibitor 2 effects on cell growth in Matrigel. Approximately 300,000 SKBR3 cells were seeded into 150 µL of growth factor reduced Matrigel (BD) that was then covered with 2 mLs of media containing either 20 µL vehicle (DMSO) or the indicated concentrations of compound 2. Cells were then imaged at 24-hour intervals using a NIKON SMZ1500 stereomicroscope. After 5 days the cells were recovered from the Matrigel by the following method. Media was aspirated and cells were washed with 500 µL of cold PBS. 150 µL of RIPA lysis buffer supplemented with ProteCEASE-50. EDTA Free protease inhibitors (GBiosciences) was added to the Matrigel. Cells were scraped into a slurry and instantly frozen using dry ice for 5 minutes. After thawing tubes were spun down at 4° C. for 10 minutes at 14K rpm. Proteins were then resolved by SDS-PAGE and the relative levels of total and phospho-ERK1/2 were detected by immunoblot analysis.

[5] = tested on: EGF-mediated ERK1/2 phosphorylation; assay: EGF-mediated ERK1/2 phosphorylation, immunoblot, H1975 cells; type: cell-based, human; settings: compound 7 at 40 μM
Experimental: as §2

PTPμ = PTPμ (Homo sapiens, UniProt P28827); assay: PTPμ inhibition, pNPP substrate; type: biochemical, mammalian; settings: pNPP at Km, pH 7.0, 25° C.
PTPε = PTPε (Homo sapiens, UniProt P23469); assay: PTPε inhibition, pNPP substrate; type: biochemical, mammalian; settings: pNPP at Km, pH 7.0, 25° C.
PTPβ = PTPβ (Homo sapiens, UniProt P23467); assay: PTPβ inhibition, pNPP substrate; type: biochemical, mammalian; settings: pNPP at Km, pH 7.0, 25° C.
LYP = LYP (Homo sapiens, UniProt Q9Y2R2); assay: LYP inhibition, pNPP substrate; type: biochemical; settings: pNPP at Km, pH 7.0, 25° C.
SHP1 = SHP1 (Homo sapiens, UniProt P29350); assay: SHP1 inhibition, pNPP substrate; type: biochemical; settings: pNPP at Km, pH 7.0, 25° C.
PTPσ = PTPσ (Homo sapiens, UniProt Q13332); assay: PTPσ inhibition, pNPP substrate; type: biochemical; settings: pH 7
PTP1B = PTP1B (Homo sapiens, UniProt P18031); assay: PTP1B inhibition, pNPP substrate; type: biochemical; settings: pNPP at Km, pH 7.0, 25° C.
VHZ = target: T3, VHZ (Homo sapiens, UniProt Q9BVJ7); assay: VHZ inhibition, pNPP substrate; type: biochemical; settings: pNPP at Km, pH 7.0, 25° C.
T3 construct: made in house

CDC14A = CDC14A (Homo sapiens, UniProt Q9UNH5); assay: CDC14A inhibition, pNPP substrate; type: biochemical; settings: pNPP at Km, pH 7.0, 25° C.
LAR = LAR (Homo sapiens, UniProt P10586); assay: LAR inhibition, pNPP substrate; type: biochemical; settings: pNPP at Km, pH 7.0, 25° C.
MKP3 = MKP3 (Homo sapiens, UniProt Q16828); assay: MKP3 inhibition, pNPP substrate; type: biochemical; settings: pH 7
PTPγ = PTPγ (Homo sapiens, UniProt P23470); assay: PTPγ inhibition, pNPP substrate; type: biochemical; settings: pNPP at Km, pH 7.0, 25° C.
TcPTP = TcPTP (Homo sapiens, UniProt P17706); assay: TcPTP inhibition, pNPP substrate; type: biochemical; settings: pH 7
VHR = VHR (Homo sapiens, UniProt P51452); assay: VHR inhibition, pNPP substrate; type: biochemical; settings: pNPP at Km, pH 7.0, 25° C.
PTPα = PTPα (Homo sapiens, UniProt P18433); assay: PTPα inhibition, pNPP substrate; type: biochemical; settings: pNPP at Km, pH 7.0, 25° C.
PP5 = PP5 (Homo sapiens, UniProt P53041); assay: PP5 inhibition, pNPP substrate; type: biochemical, mammalian; settings: pNPP at Km, pH 7.0, 25° C.
CD45 = CD45 (Homo sapiens, UniProt P08575); assay: CD45 inhibition, pNPP substrate; type: biochemical; settings: pNPP at Km, pH 7.0, 25° C.
FAP1 = FAP1 (Homo sapiens, UniProt Q12923); assay: FAP1 inhibition, pNPP substrate; type: biochemical; settings: pH 7
HePTP = HePTP (Homo sapiens, UniProt P35236); assay: HePTP inhibition, pNPP substrate; type: biochemical; settings: pNPP at Km, pH 7.0, 25° C.
Ssu72 = target: T4, Ssu72 (Homo sapiens, UniProt Q9NP77); assay: Ssu72 inhibition, pNPP substrate; type: biochemical; settings: pH 7
T4 construct: made in house

Meg2 = Meg2 (Homo sapiens, UniProt P43378); assay: Meg2 inhibition, pNPP substrate; type: biochemical; settings: pNPP at Km, pH 7.0, 25° C.

T3 sequence (Q9BVJ7 whole entry, species assumed): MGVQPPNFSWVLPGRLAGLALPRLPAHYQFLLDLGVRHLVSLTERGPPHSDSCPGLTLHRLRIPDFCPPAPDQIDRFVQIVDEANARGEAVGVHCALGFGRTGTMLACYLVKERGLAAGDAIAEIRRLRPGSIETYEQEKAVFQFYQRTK
PTPβ, sequence (P23467 23-1997): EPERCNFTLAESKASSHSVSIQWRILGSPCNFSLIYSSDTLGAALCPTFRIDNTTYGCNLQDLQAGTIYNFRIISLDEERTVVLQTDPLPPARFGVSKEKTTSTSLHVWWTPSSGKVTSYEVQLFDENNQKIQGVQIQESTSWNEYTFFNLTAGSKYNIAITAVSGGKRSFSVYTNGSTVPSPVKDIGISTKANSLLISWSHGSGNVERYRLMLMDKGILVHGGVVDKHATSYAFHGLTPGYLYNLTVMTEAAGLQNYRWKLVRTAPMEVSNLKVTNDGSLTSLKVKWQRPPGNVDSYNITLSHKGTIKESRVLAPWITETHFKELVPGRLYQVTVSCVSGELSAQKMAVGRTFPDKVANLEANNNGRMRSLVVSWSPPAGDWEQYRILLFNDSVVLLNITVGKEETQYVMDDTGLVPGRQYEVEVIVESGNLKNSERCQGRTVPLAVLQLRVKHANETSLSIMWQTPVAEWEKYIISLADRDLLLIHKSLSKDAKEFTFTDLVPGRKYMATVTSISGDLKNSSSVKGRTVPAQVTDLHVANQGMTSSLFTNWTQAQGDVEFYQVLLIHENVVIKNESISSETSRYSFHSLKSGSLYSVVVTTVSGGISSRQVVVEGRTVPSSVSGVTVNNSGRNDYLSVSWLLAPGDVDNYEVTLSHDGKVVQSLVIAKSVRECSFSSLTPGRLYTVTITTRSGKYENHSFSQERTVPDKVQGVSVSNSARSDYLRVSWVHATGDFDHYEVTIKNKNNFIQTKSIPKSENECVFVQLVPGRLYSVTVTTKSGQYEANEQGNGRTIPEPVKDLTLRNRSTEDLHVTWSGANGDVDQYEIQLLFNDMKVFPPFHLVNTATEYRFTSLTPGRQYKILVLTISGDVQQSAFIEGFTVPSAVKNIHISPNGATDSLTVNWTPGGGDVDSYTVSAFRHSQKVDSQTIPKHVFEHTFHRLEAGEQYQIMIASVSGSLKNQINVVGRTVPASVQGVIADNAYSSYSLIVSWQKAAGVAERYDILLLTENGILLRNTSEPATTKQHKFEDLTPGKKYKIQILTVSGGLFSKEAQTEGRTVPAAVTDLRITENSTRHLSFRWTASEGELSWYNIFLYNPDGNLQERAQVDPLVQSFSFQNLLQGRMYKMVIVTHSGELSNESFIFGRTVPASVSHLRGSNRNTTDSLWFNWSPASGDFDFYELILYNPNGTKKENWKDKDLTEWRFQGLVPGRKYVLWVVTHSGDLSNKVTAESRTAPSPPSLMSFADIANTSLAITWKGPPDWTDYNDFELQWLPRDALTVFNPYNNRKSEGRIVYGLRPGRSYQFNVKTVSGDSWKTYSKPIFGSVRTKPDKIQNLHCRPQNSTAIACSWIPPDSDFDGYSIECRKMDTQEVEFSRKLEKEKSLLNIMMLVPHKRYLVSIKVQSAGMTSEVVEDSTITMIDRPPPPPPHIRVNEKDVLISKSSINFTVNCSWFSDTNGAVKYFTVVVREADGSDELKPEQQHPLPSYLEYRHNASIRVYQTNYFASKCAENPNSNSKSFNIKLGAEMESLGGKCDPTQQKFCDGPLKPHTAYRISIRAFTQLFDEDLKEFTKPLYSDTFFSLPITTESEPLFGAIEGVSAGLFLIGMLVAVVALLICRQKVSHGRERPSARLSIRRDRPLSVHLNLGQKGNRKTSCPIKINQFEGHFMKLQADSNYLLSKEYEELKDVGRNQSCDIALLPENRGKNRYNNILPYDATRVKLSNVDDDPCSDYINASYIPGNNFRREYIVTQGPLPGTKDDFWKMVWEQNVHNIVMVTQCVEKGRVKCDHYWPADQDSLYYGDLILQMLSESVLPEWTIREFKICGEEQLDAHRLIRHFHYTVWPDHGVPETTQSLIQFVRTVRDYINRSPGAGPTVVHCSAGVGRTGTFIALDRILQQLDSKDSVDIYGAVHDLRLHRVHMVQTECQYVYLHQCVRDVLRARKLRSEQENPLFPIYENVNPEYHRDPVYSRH
PTPσ, sequence (Q13332 30-1948): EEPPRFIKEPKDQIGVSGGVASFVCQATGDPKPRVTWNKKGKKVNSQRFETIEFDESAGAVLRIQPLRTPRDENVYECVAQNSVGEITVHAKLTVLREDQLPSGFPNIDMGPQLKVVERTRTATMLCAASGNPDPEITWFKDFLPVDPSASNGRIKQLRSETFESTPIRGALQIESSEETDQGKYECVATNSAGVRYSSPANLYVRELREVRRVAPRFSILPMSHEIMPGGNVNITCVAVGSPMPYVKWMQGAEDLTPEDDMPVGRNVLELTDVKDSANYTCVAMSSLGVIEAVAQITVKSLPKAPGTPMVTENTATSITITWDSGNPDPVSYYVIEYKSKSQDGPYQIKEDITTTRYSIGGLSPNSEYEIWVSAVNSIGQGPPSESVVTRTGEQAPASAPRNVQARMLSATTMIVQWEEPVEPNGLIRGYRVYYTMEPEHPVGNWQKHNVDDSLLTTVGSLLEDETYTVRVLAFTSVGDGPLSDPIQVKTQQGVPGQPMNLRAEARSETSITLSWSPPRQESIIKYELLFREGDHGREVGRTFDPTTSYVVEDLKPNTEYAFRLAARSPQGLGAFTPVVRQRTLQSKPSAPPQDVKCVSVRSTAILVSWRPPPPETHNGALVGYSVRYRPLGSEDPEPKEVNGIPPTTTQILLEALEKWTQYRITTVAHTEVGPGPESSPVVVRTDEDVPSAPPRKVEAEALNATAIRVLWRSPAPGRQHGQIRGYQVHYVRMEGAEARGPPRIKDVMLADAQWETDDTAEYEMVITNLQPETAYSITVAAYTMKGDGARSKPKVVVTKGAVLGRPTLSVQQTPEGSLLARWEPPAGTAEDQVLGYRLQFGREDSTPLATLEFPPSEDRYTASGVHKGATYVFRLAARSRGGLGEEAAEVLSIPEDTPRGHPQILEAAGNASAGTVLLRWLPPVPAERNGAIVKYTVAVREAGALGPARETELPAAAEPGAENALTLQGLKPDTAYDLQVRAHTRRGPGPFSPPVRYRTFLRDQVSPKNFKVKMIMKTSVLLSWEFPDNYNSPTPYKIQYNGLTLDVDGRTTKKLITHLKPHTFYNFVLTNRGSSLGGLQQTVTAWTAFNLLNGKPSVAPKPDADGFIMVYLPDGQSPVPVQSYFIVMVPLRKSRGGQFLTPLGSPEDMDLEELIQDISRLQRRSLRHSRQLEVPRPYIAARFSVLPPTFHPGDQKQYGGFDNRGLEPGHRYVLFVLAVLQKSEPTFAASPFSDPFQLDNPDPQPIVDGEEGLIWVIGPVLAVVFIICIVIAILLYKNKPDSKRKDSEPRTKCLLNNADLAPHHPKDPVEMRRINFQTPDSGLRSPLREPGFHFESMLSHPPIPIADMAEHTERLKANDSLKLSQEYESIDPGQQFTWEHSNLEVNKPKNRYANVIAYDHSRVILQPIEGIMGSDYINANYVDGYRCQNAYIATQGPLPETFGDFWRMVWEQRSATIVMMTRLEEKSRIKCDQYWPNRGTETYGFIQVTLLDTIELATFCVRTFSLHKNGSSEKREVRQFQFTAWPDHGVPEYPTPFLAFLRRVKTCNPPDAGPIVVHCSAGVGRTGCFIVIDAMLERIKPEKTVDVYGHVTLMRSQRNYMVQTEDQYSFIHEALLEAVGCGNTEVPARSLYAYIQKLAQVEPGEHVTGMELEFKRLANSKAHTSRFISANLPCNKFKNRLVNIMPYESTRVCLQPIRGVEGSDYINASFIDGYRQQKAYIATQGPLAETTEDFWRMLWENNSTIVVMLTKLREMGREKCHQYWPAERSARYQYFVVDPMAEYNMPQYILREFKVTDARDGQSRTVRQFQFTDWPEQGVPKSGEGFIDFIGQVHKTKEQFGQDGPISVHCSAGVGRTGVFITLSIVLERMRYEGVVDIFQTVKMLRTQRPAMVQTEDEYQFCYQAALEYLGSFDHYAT
MKP3, sequence (Q16828 whole entry): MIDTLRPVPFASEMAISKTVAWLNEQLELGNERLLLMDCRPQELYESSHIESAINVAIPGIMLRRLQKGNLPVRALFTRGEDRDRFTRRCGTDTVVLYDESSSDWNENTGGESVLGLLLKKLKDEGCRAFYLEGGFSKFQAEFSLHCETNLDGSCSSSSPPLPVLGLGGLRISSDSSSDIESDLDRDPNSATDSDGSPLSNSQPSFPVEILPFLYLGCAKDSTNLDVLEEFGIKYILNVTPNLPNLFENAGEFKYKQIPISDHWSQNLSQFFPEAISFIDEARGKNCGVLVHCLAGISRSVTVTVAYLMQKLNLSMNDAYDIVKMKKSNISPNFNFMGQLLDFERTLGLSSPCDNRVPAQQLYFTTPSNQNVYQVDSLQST
PTPε, sequence (P23469 20-700): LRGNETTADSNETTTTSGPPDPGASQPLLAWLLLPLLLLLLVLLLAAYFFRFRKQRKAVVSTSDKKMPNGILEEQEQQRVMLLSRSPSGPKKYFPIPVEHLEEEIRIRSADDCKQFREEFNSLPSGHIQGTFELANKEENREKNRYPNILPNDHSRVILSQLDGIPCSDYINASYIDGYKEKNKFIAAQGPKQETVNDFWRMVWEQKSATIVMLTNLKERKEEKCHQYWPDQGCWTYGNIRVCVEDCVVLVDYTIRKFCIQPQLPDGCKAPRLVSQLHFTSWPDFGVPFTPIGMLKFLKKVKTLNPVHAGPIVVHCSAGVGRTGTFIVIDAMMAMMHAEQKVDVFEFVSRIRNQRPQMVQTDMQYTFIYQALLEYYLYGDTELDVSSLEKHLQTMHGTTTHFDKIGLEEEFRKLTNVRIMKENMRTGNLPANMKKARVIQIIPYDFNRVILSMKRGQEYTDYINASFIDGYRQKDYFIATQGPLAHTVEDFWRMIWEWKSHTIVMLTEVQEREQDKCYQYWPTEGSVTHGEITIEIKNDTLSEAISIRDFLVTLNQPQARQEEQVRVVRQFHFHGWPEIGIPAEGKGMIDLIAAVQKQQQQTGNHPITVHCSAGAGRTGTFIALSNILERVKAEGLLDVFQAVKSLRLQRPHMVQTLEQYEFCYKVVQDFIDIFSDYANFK

SMILES: NC(=O)c1cc[n+](CC2=C(C(=O)O)N3C(=O)[C@@H](NC(=O)[C@@H](c4ccccc4)S(=O)(=O)[O-])[C@H]3SC2)cc1 [Cefsulodin]
- covalent adduct formation with SHP2 (SHP2 [1]): no covalent adduct formation; also recorded: not inhibiting SHP2 by covalent modification
- increase of IC50 by replacement of R362 with alanine (SHP2/R362A): 3 fold
- mode of SHP2 inhibition (SHP2 [2]): competitive inhibitor
- mode of SHP2 inhibition (SHP2 [2]; listed as cefsulodin): competitive and reversible
- stability in crystallization solution (final pH=7.1) ([3]; 20° C., with SHP2 and DTT): completely degraded within 2 days; also recorded: the majority of cefsulodin was gone after 2 d
- stability in CBTP buffer at pH 9.1 ([3]; 3 h, 6 h, 12 h): degradation was further accelerated; also recorded: cefsulodin was gone after 12 h
- stability in pH 5.8 MES buffer ([3]; 12 h, 1 d, 2 d): degradation of cefsulodin was negligible; also recorded: stable for at least 2 days
- stability in pH 7.4 CBTP buffer ([3]; 12 h, 1 d, 2 d): degradation was obvious; also recorded: cefsulodin concentrations decreased progressively
- stability under inhibition assay conditions ([3]; pH 7 and 25° C., 0 h, 3 h, 24 h and 48 h): no change in cefsulodin

SMILES: O=C(Nc1nnc(-c2ccc(Br)cc2)s1)C(c1ccccc1)S(=O)(=O)O (stereo not shown) [Compound L319M79]
- IC50 (LMWPTP): 23.6 µM
- IC50 (PEST): 26.5 µM
- IC50 (Laforin): 2.2 µM

SMILES: O=C(Nc1ccc(I)cc1)C(=O)Nc1ccc(NC(=O)C(c2ccccc2)S(=O)(=O)O)cc1 (stereo not shown) [Compound 2, 2-((4-(2-((4-iodophenyl)amino)-2-oxoacetamido)phenyl)amino)-2-oxo-1-phenylethanesulfonic acid]
- PMA-induced ERK1/2 phosphorylation [4]: no effect
- ERK1/2 activity in SKBR3 cells in Matrigel at 20 μM (SKBR3 cells; 20 μM): partial inhibition
- SKBR3 cell growth in Matrigel at 20 μM (SKBR3 cells; 20 μM): partial inhibition
- ERK1/2 activity in SKBR3 cells in Matrigel at 40 μM (SKBR3 cells; 40 μM): barely detectable
- SKBR3 cell growth in Matrigel at 40 μM (SKBR3 cells; 40 μM): almost completely absent
- EGF-mediated ERK1/2 phosphorylation in H1975 cells [5]: reduced EGF-mediated ERK1/2 phosphorylation in a dose-dependent manner; also recorded: decrease the EGF-mediated ERK1/2 phosphorylation in a dose dependent manner

SMILES: Cc1c(Br)cc(NC(=O)C(c2ccccc2)S(=O)(=O)O)cc1Br (stereo not shown) [Compound L319M34]
- IC50 (PTPμ): > 200 µM
- IC50 (PTPε): > 200 µM
- IC50 (PTPβ): > 200 µM
- IC50 (LYP): > 200 µM
- IC50 (SHP1): > 200 µM
- IC50 (PTPσ): > 200 µM
- IC50 (PTP1B): > 200 µM
- IC50 (VHZ): > 200 µM
- IC50 (CDC14A): > 200 µM
- IC50 (LAR): > 200 µM
- IC50 (MKP3): > 200 µM
- IC50 (PTPγ): > 200 µM
- IC50 (TcPTP): > 200 µM
- IC50 (VHR): > 200 µM
- IC50 (PTPα): > 200 µM
- IC50 (SHP2 [2]; pNPP at Km, pH 7.0, 25° C.): > 200 µM
- IC50 (PP5): > 200 µM
- IC50 (CD45): > 200 µM
- IC50 (FAP1): > 200 µM
- IC50 (HePTP): > 200 µM
- IC50 (Ssu72): > 200 µM
- IC50 (Meg2): > 200 µM
